System: pig corneas
Experiment: Tensile test (stiffness) of pig corneas after treating whole eye globes with cross-linking solution
Conditions: Experiment 1: diacid/NHS/EDCI solution in PBS with excess EDCI, 30 minutes incubation at 37° C., n=3 (FIG. 1)
Excerpt: Pig eyes were collected from the abattoir on the day of slaughter. They were brought to the laboratory and any remaining soft tissue was carefully dissected away leaving just globe and the small section of optic nerve. These were washed 3 times in PBS. A drop of fluorescein dye (1% diluted 1:10 in PBS) was applied to the cornea of each eye to evaluate the integrity of the corneal epithelium (as used in the clinic). The globes were then washed again in PBS 3 times.
The globes were mounted individually on Perspex rings and placed corneal side down in 6-well cell culture plates. This ensured that the eyes were balanced stably and that the corneal surface was exposed in a controlled manner to the cross-linking solution.
Dissolve 575 mg of NHS and 775 mg of EDCI in 22.5 ml of PBS. Dissolve 500 mg Sebacic acid (decanedioic acid) or 435 mg of Suberic acid (octanedioic acid) or 365 mg of Adipic acid (hexanedioic acid) in 2.5 ml of PBS. Add each diacid solution to 22.5 ml of NHS/EDCI solution.
Experiments 2 and 3 used a Molar ratio of […] of suberic:NHS:EDCI using 319 mg NHS, 430 mg EDCI and 241 mg suberic acid. NHS/EDCI dissolved first in 7.5 ml PBS and suberic acid dissolved in 7.5 ml PBS with the addition of 500 ul DMAE to aid solubility. The two solution were added to each other and made up to 15 ml if necessary.
Add diacid/NHS/EDCI solution (4-5 ml) to 3 eyes for each diacid and add PBS (4-5 ml) to 3 eyes as control. Incubate for 30 minutes at 37° C. After 30 minutes, wash off solution with PBS (5 times).
Add suberic acid/NHS/EDCI solution (4-5 ml) to 3 eyes and add PBS (4-5 ml) to 3 eyes as control. […]
Since the cross-linking chemistry is based on EDCI/NHS mediated chemistry, the individual active moieties being used (EDCI and NHS) in the treatment solution are chemically able to crosslink proteins. The ability at which the individual chemicals are able to increase the biomechanical property of the cornea was assessed. Corneas were prepared, the masses of all the chemicals were measured out, and the corneas were treated as described above. […]

Question: For `O=C(O)CCCCCCCCC(=O)O` [Sebacic acid, decanedioic acid], which “increase in stiffness compared to the untreated control corneas” value (shortened to “increase in stiffness”) is on record?
Answer: 54.8%

Question: How did the “increase in stiffness” value turn out when `O=C(O)CCCCC(=O)O` [adipic acid, hexanedioic acid] was run?
Answer: 63.6%

Question: How did the “increase in stiffness” value turn out when `O=C(O)CCCCCCC(=O)O` [suberic acid, octanedioic acid] was run?
Answer: 84.9%

Reference: patent US10463610B2, “Composition comprising diacid derivatives and their use in the treatment of collagenic eye disorders” (THE UNIVERSITY OF LIVERPOOL, priority 2015, dated 2019)
